The values below come from patent publication EP0244595A2, “Dihydropyridine derivatives, process for their preparation and their use as pharmaceutical compounds” (Byk Gulden Lomberg Chemische Fabrik GmbH, priority 1986, dated 1987).

Structures are written as SMILES. Counter-ions that a name gives are not always drawn. Like-named read-outs stand apart in the source and are kept apart here.

The test relates to genetisch hypertonen Ratten. The experiment in a line: Antihypertensive effect (systolic blood pressure, tail cuff) in spontaneously hypertensive rats after oral dosing. Conditions: Rattus norvegicus; for change in vivo at 25 µmol/kg: 25 µmol/kg p.o. once daily on four consecutive days; for change in vivo at 10 µmol/kg: 10 µmol/kg p.o. once daily on four consecutive days; for change in vivo at 5 µmol/kg: 5 µmol/kg p.o. once daily on four consecutive days. Type of test: in vivo, Ratte. An excerpt:
Die antihypertensive Wirksamkeit der erfindungsgemäßen Verbindungen kann am Modell der spontan hypertonen Ratte nachgewiesen werden.
Zur Bestimmung der antihypertensiven Wirkung werden die unten aufgeführten Verbindungen in den angegebenen Dosen an vier aufeinander folgenden Tagen an je 6 männlichen Ratten (Stamm SHR/N/Ibm/Bm, 250-350 g) mit genetisch bedingtem Hochdruck (systolischer Blutdruck > 180 mmHg) täglich einmal mittels Schlundsonde verabfolgt. Die Messung des Blutdrucks erfolgt jeweils 6 und gegebenenfalls 2 oder 24 Studnen nach Substanzgabe.
Die Blutdruckmessung wird in einer Wärmekammer bei 36°C vorgenommen, um eine bessere Durchblutung der Schwanzarterie zu erreichen. Hierzu werden die Tiere in perforierte Lochblechkäfige verbracht und 20 - 40 Min. nach Beginn der Aufwärmung gemessen. Zur Messung des systolischen arteriellen Drucks wird eine ringförmige Manschette mit aufblasbarer Gummimembran zur Unterbindung der Durchblutung und ein ringförmiger Piezokristallaufnehmer zur Erfassung der Pulswellen auf den Schwanz aufgeschoben. Nach erfolgter Unterbindung des Blutstroms in der Schwanzarterie wird der Manschettendruck kontinuierlich reduziert. Die Wiederkehr der Pulswellen bei Druckablassen wird automatisch als systolischer Blutdruck erkannt und ausgedruckt (Bühler, R. er al." Microprocessor-based automation of blood pressure measurement in the conscious rat. Proceedings of the 4th international symposium on rats with spontaneous hypertension and related studies, Rascher, R. et al. (Eds.), Schattauer Verlag, Stuttgart, New York, 1982, S. 410-413). Pulssignale und Druckverlauf werden zur Auswertung graphisch aufgezeichnet.
Zur Gewöhnung an den Meßvorgang werden die Tiere vor Substanzprüfung 14 Tage trainiert. In der zweiten Trainingswoche werden Blutdruck-Vorwerte erhoben. Tiergruppen, die Substanz erhalten, werden gegen eine Kontrollgruppe geprüft.
In der anschließenden Tabelle werden die untersuchten Verbindungen durch laufende Nummern gekennzeichnet, die mit den jewiligen Beispielnummern übereinstimmen.
Tabelle I gibt für die Vertreter der erfindungsgemäßen Verbindungen die prozentuale Senkung des Blutdrucks (BP) nach oraler Verabreichung bei der Ratte wieder.

Where [1] appears, read: 2h after dosing, mean of days 1+4, male SHR/N/Ibm/Bm rats, N=6, read-out: BP (% Änderung vs. Kontrolle), Mittelwert für Meßzeitpunkte: Stunden nach Gabe (Tage) 2h (1.+4.Tag).
Setting [2] is: 6h after dosing, mean of days 1-4, male SHR/N/Ibm/Bm rats, N=6, read-out: BP (% Änderung vs. Kontrolle), Mittelwert für Meßzeitpunkte: Stunden nach Gabe (Tage) 6h (1.-4.Tag).
[3] abbreviates: 24h after dosing, mean of days 1+3, male SHR/N/Ibm/Bm rats, N=6, read-out: BP (% Änderung vs. Kontrolle), Mittelwert für Meßzeitpunkte: Stunden nach Gabe (Tage) 24h (1.+3.Tag).

Regarding `CC1=C(C(=O)OCCCN2CCN(C(c3ccccc3)c3ccccc3)CC2)C(c2cccc([N+](=O)[O-])c2)C(C(=O)O[C@@H]2C[C@H](C)CC[C@H]2C(C)C)=C(C)N1` (single isomer, unassigned) [Beispiel 13, 1,4-Dihydro-2.6-dimethyl-4-(3-nitrophenyl)-pyridin-3,5-dicarbonsäure-3-(-)-menthyl-5-[3-(4-benzhydryl-1-piperazinyl)-propyl]-ester-semifumarat], the change in vivo at 25 µmol/kg runs as follows: under setting [1], -30%; under setting [2], -40%; under setting [3], -35%.

With `CC1=C(C(=O)OCCN2CCCCC2)C(c2cccc([N+](=O)[O-])c2)C(C(=O)O[C@@H]2C[C@H](C)CC[C@H]2C(C)C)=C(C)N1` (single isomer, unassigned) [Beispiel 23, 1,4-Dihydro-2,6-dimethyl-4-(3-nitrophenyl)-pyridin-3,5-dicarbonsäure-3-(-)-menthyl-5-[2-(1-piperidinyl)-ethyl]-ester-fumarat], the change in vivo at 25 µmol/kg is -17% under setting [1], -26% under setting [2] and 4% under setting [3].

For the compound `CC1=C(C(=O)OCCN2CCN(c3ccccn3)CC2)C(c2cccc([N+](=O)[O-])c2)C(C(=O)O[C@@H]2C[C@H](C)CC[C@H]2C(C)C)=C(C)N1` (stereo partly drawn) [Beispiel 5a, 1,4-Dihydro-2,6-dimethyl-4-(3-nitropheny)-pyridin-3,5-dicarbonsäure-3-(-)-menthyl-5-{2-[4-(2-pyridyl)-1-piperazinyl]-ethyl}-ester-fumarat], the change in vivo at 10 µmol/kg reads like this: under setting [1], -29%; under setting [2], -11%; under setting [3], -3%.

As for `CC1=C(C(=O)OCCCN2CCN(c3ccccc3C)CC2)C(c2cccc([N+](=O)[O-])c2)C(C(=O)O[C@@H]2C[C@H](C)CC[C@H]2C(C)C)=C(C)N1` (single isomer, unassigned) [Beispiel 17, 1,4-Dihydro-2,6-dimethyl-4-(3-nitrophenyl)-pyridin-3,5-dicarbonsäure-3-(-)-menthyl-5-{3-[4-(2-tolyl)-1-piperazinyl]-propyl}-ester-fumarat], the change in vivo at 10 µmol/kg is -17% under setting [1], -14% under setting [2] and -3% under setting [3].

Regarding `CC1=C(C(=O)OCCCN2CCC(c3ccccc3)CC2)C(c2cccc([N+](=O)[O-])c2)C(C(=O)O[C@@H]2C[C@H](C)CC[C@H]2C(C)C)=C(C)N1` (single isomer, unassigned) [Beispiel 2b, 1,4-Dihydro-2,6-dimethyl-4-(3-nitrophenyl)-pyridin-3,5-dicarbonsäure-3-(-)-menthyl-5-[3-(4-phenylpiperidyl-1)-propyl]-ester-hydrochlorid], the change in vivo at 25 µmol/kg is -36% under setting [1], -33% under setting [2] and -16% under setting [3].

In the case of `CC1=C(C(=O)OCCCN2CCC(c3ccccc3)(c3ccccc3)CC2)C(c2cccc([N+](=O)[O-])c2)C(C(=O)O[C@@H]2C[C@H](C)CC[C@H]2C(C)C)=C(C)N1` (stereo partly drawn) [Beispiel 1a, 1,4-Dihydro-2,6-dimethyl-4-(3-nitrophenyl)-pyridin-3,5-dicarbonsäure-3-(-)-menthyl-5-[3-(4,4-diphenylpiperidyl-1)-propyl]-ester-hydrochlorid], the change in vivo at 25 µmol/kg is -24% under setting [1], -20% under setting [2] and -15% under setting [3].

Consider `CC1=C(C(=O)OCCCN2CCN(c3ccccn3)CC2)C(c2cccc([N+](=O)[O-])c2)C(C(=O)O[C@@H]2C[C@H](C)CC[C@H]2C(C)C)=C(C)N1` (single isomer, unassigned) [Beispiel 12, 1,4-Dihydro-2,6-dimethyl-4-(3-nitrophenyl)-pyridin-3,5-dicarbonsäure-3-(-)-menthyl-5-{3-[4-(2-pyridyl)-1-piperazinyl]-propyl}-ester-fumarat], for which the change in vivo at 10 µmol/kg was -17% under setting [1], -20% under setting [2] and -1% under setting [3].

As to `COc1cccc(N2CCN(CCCOC(=O)C3=C(C)NC(C)=C(C(=O)O[C@@H]4C[C@H](C)CC[C@H]4C(C)C)C3c3cccc([N+](=O)[O-])c3)CC2)c1` (single isomer, unassigned) [Beispiel 15, 1,4-Dihydro-2,6-dimethyl-4-(3-nitrophenyl)-pyridin-3,5-dicarbonsäure-3-(-)-menthyl-5-{3-[4-(3-methoxyphenyl)-1-piperazinyl]-propyl}-ester-fumarat], the change in vivo at 10 µmol/kg under setting [1] was -14%, the change in vivo at 10 µmol/kg under setting [2] was -7% and the change in vivo at 10 µmol/kg under setting [3] is -4%.

As for `COc1ccccc1N1CCN(CCCOC(=O)C2=C(C)NC(C)=C(C(=O)O[C@@H]3C[C@H](C)CC[C@H]3C(C)C)C2c2cccc(Cl)c2Cl)CC1` (single isomer, unassigned) [Beispiel 21, 4-(2,3-Dichlorphenyl)-1,4-dihydro-2,6-dimethyl-pyridin-3,5-dicarbonsäure-3-(-)-menthyl-5-{3-[4-(2-methoxyphenyl)-1-piperazinyl]-propyl}ester-fumarat], the change in vivo at 25 µmol/kg is, setting by setting: under setting [1], -50%; under setting [2], -51%; under setting [3], -46%.

Take `CC1=C(C(=O)OCCN2CCN(c3ccccc3)CC2)C(c2cccc([N+](=O)[O-])c2)C(C(=O)O[C@@H]2C[C@H](C)CC[C@H]2C(C)C)=C(C)N1` (stereo partly drawn) [Beispiel 4a, 1,4-Dihydro-2,6-dimethyl-4-(3-nitrophenyl)-pyridin-3,5-dicarbonsäure-3-(-)-menthyl-5-[2-(4-phenyl-1-piperazinyl)-ethyl]ester-fumarat]: the change in vivo at 5 µmol/kg under setting [1] was -34%, the change in vivo at 5 µmol/kg under setting [2] is -23% and the change in vivo at 5 µmol/kg under setting [3] is -14%.

`CC1=C(C(=O)OCCCN2CCN(c3cccc(C(F)(F)F)c3)CC2)C(c2cccc([N+](=O)[O-])c2)C(C(=O)O[C@@H]2C[C@H](C)CC[C@H]2C(C)C)=C(C)N1` (single isomer, unassigned) [Beispiel 14, 1,4-Dihydro-2,6-dimethyl-4-(3-nitrophenyl)-pyridin-3,5-dicarbonsäure-3-(-)-menthyl-5-{3-[4-(3-trifluormethylphenyl}-1-piperazinyl]-propyl}-ester-fumarat]: the change in vivo at 25 µmol/kg runs as follows: under setting [1], -42%; under setting [2], -43%; under setting [3], -21%.

Turning to `CC1=C(C(=O)OCCN2CCN(c3ccccc3)CC2)C(c2cccc([N+](=O)[O-])c2)C(C(=O)O[C@@H]2C[C@H](C)CC[C@H]2C(C)C)=C(C)N1` (single isomer, unassigned) [Beispiel 4b, 1,4-Dihydro-2,6-dimethyl-4-(3-nitrophenyl)-pyridin-3,5-dicarbonsäure-3-(-)-menthyl-5-[2-(4-phenyl-1-piperazinyl)-ethyl]ester-fumarat], the change in vivo at 5 µmol/kg was -18% under setting [1], -16% under setting [2] and 4% under setting [3].
